Results reported in patent publication US20240368092A1, “2,4-Dihydro-3H-1,2,4-Triazol-3-One P2X7 Antagonists” (Breye Therapeutics ApS, priority 2021, published 2024).

Legend:
Assay type in all cases: cell-based
human P2X7 channel = target: T1, human P2X7 channel (Homo sapiens, UniProt Q99572); test: human P2X7 channel assay by automated patch-clamp (QPatch 16X); details: HEK-293 cells expressing P2X7; current evoked by 100 microM BzATP; whole-cell, held at -80 mV; read-out: human Q-Patch (activity range)
T1 construct: expressed in transfected cells; host or cells: HEK-293
T1 sequence (Q99572 1-595): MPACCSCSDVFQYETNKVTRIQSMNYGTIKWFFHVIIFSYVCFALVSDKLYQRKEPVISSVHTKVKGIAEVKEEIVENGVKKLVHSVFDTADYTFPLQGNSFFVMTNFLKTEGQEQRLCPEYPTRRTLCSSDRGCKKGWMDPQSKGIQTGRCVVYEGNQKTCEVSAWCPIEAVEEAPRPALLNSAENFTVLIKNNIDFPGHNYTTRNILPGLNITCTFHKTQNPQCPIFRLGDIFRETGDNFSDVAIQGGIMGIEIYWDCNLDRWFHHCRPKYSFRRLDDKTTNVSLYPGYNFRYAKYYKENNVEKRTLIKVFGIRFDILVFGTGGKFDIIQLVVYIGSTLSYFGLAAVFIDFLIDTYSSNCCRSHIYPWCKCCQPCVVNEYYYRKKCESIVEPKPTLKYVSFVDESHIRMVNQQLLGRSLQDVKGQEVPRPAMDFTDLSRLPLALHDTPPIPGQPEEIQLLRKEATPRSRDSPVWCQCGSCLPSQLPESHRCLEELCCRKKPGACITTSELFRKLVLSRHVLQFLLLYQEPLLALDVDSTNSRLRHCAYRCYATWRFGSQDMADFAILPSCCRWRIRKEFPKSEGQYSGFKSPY
Method: In order to directly monitor the block of P2X7 channel, an electrophysiological assay was developed and implemented on the QPatchl6X automated electrophysiology instrument.
HEK-293 cells expressing the P2X7 channels were cultured in modified EMEM.
72 hours before experiment, 5 million cells were seeded onto T225 flasks. Just before the experiment cells were washed twice, detached from the flask with trypsin-EDTA, re-suspended in the suspension solution and placed on the QPatch 16x.
The compounds (20 mM in a 100% DMSO) stored at −20° C. were prepared the day of the experiment (a first dilution 1:20 in 100% DMSO to prepare a 1 mM stock solution, then a 1 microM solution in external solution+a serial dilution 1:10).
The standard whole-cell voltage clamp experiments were performed at room temperature. From these experiments the multihole technology was used and the data were sampled at 2 KHz.
The intracellular solution contained (mM) 135 CsF, 10 NaCl, 1 EGTA, 10 HEPES, (pH 7.2 with CsOH) whereas the extracellular contained (mM) 145 NaCl, 4 KCl, 0.5 MgCl2, 1 CaCl2, 10 HEPES, 10 Glc (pH 7.4 with NaOH).
After establishment of the seal and the passage in the whole cell configuration, the cells were held at −80 mV. The P2XR7 current was evoked by applying 100 microM of BzATP alone (4 times) and then in the presence increasing concentrations of the compound under investigation (1, 10, 100 and 1000 nM).
The pre-incubation periods 5 to 8 contain increasing concentrations of the compound of interest (1, 10, 100 and 1000 nM), as illustrated in FIGURE (application protocol).
The maximal inward current evoked by BzATP in absence or presence of increasing concentrations of the compounds under investigation was measured and normalized. The potential […] effect was measured as % of control and as IC50 determined fitting the dose-response curves data with the following equation:
Here are reported the potency ranges as A, B, C and D, where A is <10 nM; B is 10 nM-100 nM, C is 0.1-1 μM, D is 1-10 μM.

humanP2X7 = target: T2, humanP2X7 (Homo sapiens, UniProt Q99572); test: P2X7 channel calcium-influx assay (Fluo-8, FLIPR TETRA), human P2X7; details: HEK-293 cells stably transfected with P2X7; Bz-ATP at EC80; low divalent cation buffer; read-out: humanP2X7 (activity range)
T2 construct: expressed in transfected cells; host or cells: HEK-293
T2 sequence (Q99572 1-595): T1 sequence (Q99572 1-595)
Method: (§1) Extracellular binding of Bz-ATP to P2X7 receptor opens the channel and allows Ca^2+ influx into the cells. This Ca^2+ entry was measured in HEK-293 cells stably transfected with P2X7 receptor using Screen Quest™ Fluo-8 No Wash Calcium Assay Kit (AAt Bioquest®, cat. 36316). Once inside the cell, the lipophilic blocking groups of Fluo-8 are cleaved by non-specific cell esterases, resulting in a negatively-charged fluorescent dye that stays inside cells. Its fluorescence increases upon binding to calcium. When HEK-293/P2X7 cells are stimulated with Bz-ATP, Ca^2+ enters the cells and the fluorescence of Fluo-8 NW increases. The dye has an absorption spectrum compatible with excitation at 488 nm by argon laser sources and its emission wavelength is in the range of 515-575 nm.
(§2) HEK-293 cells stably transfected with P2X7 receptor were seeded overnight in growth medium at 10,000 to 20,000 cells/well in 384-well plate. 24 hours later, the medium was removed, and the cells were pre-loaded at RT for 1 hour with 20 μL/w of Fluo-8 NW. Then 10 μL/w of test compounds and reference antagonist A438079 at 3×-concentration were injected with the FLIPRTETRA and the kinetic response over a period of five minutes was monitored. A second injection of 15 μL/w of 3× reference activator (Bz-ATP at EC80) was performed with the FLIPR TETRA and the signal of the emitted fluorescence was recorded for additional three minutes. All the experiment was carried out in a Low Divalent Cation Assay Buffer (0.3 mM Ca^2+ and 0 mM Mg^2+). The effect of the test compounds was measured as percent inhibition vs the reference antagonist and IC50 values were calculated accordingly. Here are reported the potency ranges as A, B, C and D, where A is <200 nM; B is 200 nM-1 μM, C is 1-10 μM, D is 10-30 μM.

ratP2X7 = target: T3, ratP2X7 (Rattus norvegicus, UniProt Q64663); test: P2X7 channel calcium-influx assay (Fluo-8, FLIPR TETRA), rat P2X7; details: HEK-293 cells stably transfected with P2X7; Bz-ATP at EC80; low divalent cation buffer; read-out: ratP2X7 (activity range)
T3 construct: expressed in transfected cells; host or cells: HEK-293
T3 sequence (Q64663 1-595): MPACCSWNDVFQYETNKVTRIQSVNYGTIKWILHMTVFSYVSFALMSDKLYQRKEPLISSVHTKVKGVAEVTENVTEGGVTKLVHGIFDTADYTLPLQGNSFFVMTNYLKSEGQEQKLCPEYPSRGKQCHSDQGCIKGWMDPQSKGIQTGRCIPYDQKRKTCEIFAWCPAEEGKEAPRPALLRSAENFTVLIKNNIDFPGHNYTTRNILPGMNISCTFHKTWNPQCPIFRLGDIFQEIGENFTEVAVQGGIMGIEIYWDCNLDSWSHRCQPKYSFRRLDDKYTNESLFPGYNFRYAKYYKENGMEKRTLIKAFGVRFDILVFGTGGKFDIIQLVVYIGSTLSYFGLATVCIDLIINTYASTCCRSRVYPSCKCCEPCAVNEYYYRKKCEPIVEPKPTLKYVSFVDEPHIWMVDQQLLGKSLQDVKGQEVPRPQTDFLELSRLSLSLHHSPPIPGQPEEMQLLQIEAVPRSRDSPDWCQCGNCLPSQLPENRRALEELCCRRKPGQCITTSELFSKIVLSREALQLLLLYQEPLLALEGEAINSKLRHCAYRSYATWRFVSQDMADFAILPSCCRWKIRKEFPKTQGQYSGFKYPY
Method: as §1, §2

mouseP2X7 = target: T4, mouseP2X7 (Mus musculus, UniProt Q9Z1M0); test: P2X7 channel calcium-influx assay (Fluo-8, FLIPR TETRA), mouse P2X7; details: HEK-293 cells stably transfected with P2X7; Bz-ATP at EC80; low divalent cation buffer; read-out: mouseP2X7 (activity range)
T4 construct: expressed in transfected cells; host or cells: HEK-293
T4 sequence (Q9Z1M0 1-595): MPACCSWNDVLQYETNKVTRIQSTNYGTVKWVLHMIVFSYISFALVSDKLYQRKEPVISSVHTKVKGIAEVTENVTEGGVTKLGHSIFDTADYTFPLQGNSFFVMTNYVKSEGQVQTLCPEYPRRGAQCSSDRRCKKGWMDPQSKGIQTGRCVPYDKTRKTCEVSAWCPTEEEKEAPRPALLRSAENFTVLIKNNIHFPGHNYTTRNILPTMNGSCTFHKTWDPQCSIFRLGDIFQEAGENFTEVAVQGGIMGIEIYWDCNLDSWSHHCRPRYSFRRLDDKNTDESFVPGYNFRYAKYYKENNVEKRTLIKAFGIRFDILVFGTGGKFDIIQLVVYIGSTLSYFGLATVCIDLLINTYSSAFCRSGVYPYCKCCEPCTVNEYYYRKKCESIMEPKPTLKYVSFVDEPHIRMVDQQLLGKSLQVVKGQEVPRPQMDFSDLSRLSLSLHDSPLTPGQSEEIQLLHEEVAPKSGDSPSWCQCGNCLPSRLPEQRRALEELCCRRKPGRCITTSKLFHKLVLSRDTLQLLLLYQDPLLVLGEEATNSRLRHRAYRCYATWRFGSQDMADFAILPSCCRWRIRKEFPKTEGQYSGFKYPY
Method: as §1, §2

Row | SMILES | IC50 (human P2X7 channel) | IC50 (humanP2X7) | IC50 (ratP2X7) | IC50 (mouseP2X7)
1 | O=c1n(CC(F)(F)F)nc(CC2CCC(F)(F)CC2)n1Cc1c(F)cccc1Cl [Example 70, 4-[(2-chloro-6-fluorophenyl)methyl]-5-[(4,4-difluorocyclohexyl)methyl]-2-(2,2,2-trifluoroethyl)-2,4-dihydro-3H-1,2,4-triazol-3-one] | 100 to 1000 nM | 200 to 1000 nM | < 200 nM | 1 to 10 µM
2 | O=c1n(CC(F)(F)F)nc(CC2CCCCCC2)n1Cc1c(F)cccc1Cl [Example 61, 4-[(2-chloro-6-fluorophenyl)methyl]-5-(cycloheptylmethyl)-2-(2,2,2-trifluoroethyl)-2,4-dihydro-3H-1,2,4-triazol-3-one] | 100 to 1000 nM | 200 to 1000 nM | < 200 nM | 1 to 10 µM
3 | Cn1nc(Cc2c(F)cccc2Cl)n(CCN2CCOCC2(C)C)c1=O [Example 30, 5-(2-chloro-6-fluorobenzyl)-4-(2-(3,3-dimethylmorpholino)ethyl)-2-methyl-2,4-dihydro-3H-1,2,4-triazol-3-one] | 1000 to 10000 nM | 1000 to 10000 nM | 1000 to 10000 nM | 10 to 30 µM
4 | Cn1nc(Cc2c(F)cccc2Cl)n(CC2CCCO2)c1=O (stereo not drawn) [Example 20, 5-(2-chloro-6-fluorobenzyl)-2-methyl-4-((tetrahydrofuran-2-yl)methyl)-2,4-dihydro-3H-1,2,4-triazol-3-one] | 1000 to 10000 nM | 10000 to 30000 nM | 10000 to 30000 nM | 10 to 30 µM
5 | Cn1nc(Cc2ccc(F)cc2Cl)n(CC2CCC3(CC2)CC3)c1=O [Example 35, 5-(2-chloro-4-fluorobenzyl)-2-methyl-4-(spiro[2.5]octan-6-ylmethyl)-2,4-dihydro-3H-1,2,4-triazol-3-one] | 100 to 1000 nM | 200 to 1000 nM | < 200 nM | 1 to 10 µM
6 | Cn1nc(Cc2ccccc2C(F)(F)F)n(CC2CCCCC2)c1=O [Example 17, 4-(cyclohexylmethyl)-2-methyl-5-(2-(trifluoromethyl)benzyl)-2,4-dihydro-3H-1,2,4-triazol-3-one] | 100 to 1000 nM | 200 to 1000 nM | < 200 nM | 1 to 10 µM
7 | CN1CCCCC1Cn1c(Cc2c(F)cccc2Cl)nn(C)c1=O (stereo not drawn) [Example 21, 5-(2-chloro-6-fluorobenzyl)-2-methyl-4-((1-methylpiperidin-2-yl)methyl)-2,4-dihydro-3H-1,2,4-triazol-3-one] | 1000 to 10000 nM | 1000 to 10000 nM | 1000 to 10000 nM | 10 to 30 µM
8 | Cn1nc(Cc2ccccc2C(F)(F)F)n(CC2CCC(F)(F)C2)c1=O (stereo not drawn) [Example 19, 4-((3,3-difluorocyclopentyl)methyl)-2-methyl-5-(2-(trifluoromethyl)benzyl)-2,4-dihydro-3H-1,2,4-triazol-3-one] | 100 to 1000 nM | 1000 to 10000 nM | 200 to 1000 nM | 10 to 30 µM
9 | O=c1n(CCC(F)(F)F)nc(Cc2c(F)cccc2Cl)n1CC1CCC(F)(F)CC1 [Example 57, 5-[(2-chloro-6-fluorophenyl)methyl]-4-[(4,4-difluorocyclohexyl)methyl]-2-(3,3,3-trifluoropropyl)-2,4-dihydro-3H-1,2,4-triazol-3-one] | 10 to 100 nM | < 200 nM | < 200 nM | < 0.2 µM
10 | Cn1nc(Cc2ccccc2Cl)n(CC2CCCCCC2)c1=O [Example 55, 5-[(2-chlorophenyl)methyl]-4-(cycloheptylmethyl)-2-methyl-2,4-dihydro-3H-1,2,4-triazol-3-one] | 100 to 1000 nM | 200 to 1000 nM | < 200 nM | 1 to 10 µM
11 | Cn1nc(Cc2ccccc2F)n(CC2CCCCC2(C)C)c1=O (stereo not drawn) [Example 32, 4-((2,2-dimethylcyclohexyl)methyl)-5-(2-fluorobenzyl)-2-methyl-2,4-dihydro-3H-1,2,4-triazol-3-one] | 1000 to 10000 nM | 1000 to 10000 nM | < 200 nM | 1 to 10 µM
12 | Cn1nc(Cc2ccccc2C(F)(F)F)n(CC2CCC(C(F)(F)F)CC2)c1=O (stereo not drawn) [Example 40, 2-methyl-5-(2-(trifluoromethyl)benzyl)-4-((4-(trifluoromethyl)cyclohexyl)methyl)-2,4-dihydro-3H-1,2,4-triazol-3-one] | 100 to 1000 nM | < 200 nM | < 200 nM | 1 to 10 µM
